Entries after “also recorded” stand apart in the source; their conditions may differ.
What was measured:
[1] = tested on: neuronal (HT22) tumor cell line; test: growth inhibition of neuronal tumor cell line in cell culture; type: cell-based, mouse
Protocol: (§1) For the latter cell line, however, the experiments are not complete as yet. […] The effect was concentration-dependent. […] The tumor cells were inhibited selectively beginning after 30 minutes. Following 1 to 3 hours about 90% of the tumor cells were inhibited. For the cell culture, cells were used in RPM1 1640 medium and plated in Falcon flasks.

[2] = tested on: glial (C6) tumor cell line; test: growth inhibition of glial tumor cell line in cell culture; type: cell-based, rat
Protocol: as §1

[3] = tested on: mixed neuronal and glial (U373) tumor cell line; test: growth inhibition of mixed neuronal and glial tumor cell line in cell culture; type: cell-based, human; conditions: experiments are not complete as yet
Protocol: as §1

[4] = tested on: CNS tumor cell lines (HT22, C6, U373); test: inhibition of CNS tumor cells in culture (lines reported together), cytological changes recorded over time; type: cell-based; conditions: for time after which inhibition of tumor cells started: Results section (HT22, C6)
[5] = cited from earlier work
[6] = tested on: glioblastoma multiform-tumor cells; test: tissue-culture of glioblastoma multiform tumor cells
[7] = tested on: primary CNS-cells (brain cells of rat fetuses); test: effect on primary CNS cells in cell culture; type: cell-based
[8] = following 1 to 3 hours, Example 1
[9] = following about 1 to 2 hours, Results section

| cytological effect on primary CNS-cells ([7]; following 48 hours) | effect on CNS nerve cells, including stem cells of embryo meningeal cells ([7]; following administration of Taurolidine/Taurultam solutions) | Compound | direct inhibition of growth of tumor cell line [1] | direct inhibition of growth of tumor cell line [2] | direct inhibition of growth of tumor cell line [3] | time after which inhibition of tumor cells started [4] [min] | tumor cells inhibited [4, 8] | tumor cells inhibited [4, 9] [%] | water solubility [5] | concentration that inhibits or kills tumor cells in tissue-culture [6] [mg/mL] | effectiveness relative to Taurolidine [4] | time after which selective inhibition of tumor cells began ([4]; Example 1) [min] | growth inhibition of normal/primary central nervous system cells (selectivity versus tumor cells) ([7]; primary cell lines of fetal rat central nervous system, compared to tumor cells) |
| --- | --- | --- | --- | --- | --- | --- | --- | --- | --- | --- | --- | --- | --- |
|  |  | O=S1(=O)CCN(CN2CCS(=O)(=O)NC2)CN1 [Taurolidine, Bis-(1,1-dioxoperhydro-1,2,4-thiadiazinyl-4)methane] | inhibit directly the growth | inhibit directly the growth | inhibit directly the growth | 10 | about 90% | 90 | up to 2% | 0.1 to 4 |  |  |  |
| no significant cytological effect | remain unaffected | O=S1(=O)CCNCN1 [Taurultam] | inhibit directly the growth | inhibit directly the growth | inhibit directly the growth | 10 | about 90% | 90 |  |  | almost twice as effective as Taurolidine | 30 | required significantly higher concentrations and a significantly longer contact time for inhibition; also recorded: not significantly inhibited |

From patent US8202860B2, “Methods and compositions for treating primary and secondary tumors of the central nervous system (CNS)” (Ed. Geistlich Soehne AG fuer Chemische Industrie, priority 1999, dated 2012)
